Assay results as given in patent publication US7652013B2, “Inhibitors of stearoyl-CoA desaturase” (Hoffman-La Roche Inc., priority 2007, dated 2010).

Target: T1, SCD1 (Mus musculus, UniProt P13516)
T1 construct: Mouse liver microsomes, prepared from mice fed a high carbohydrate diet, were a source of the SCD; from tissue; host or cells: mouse liver microsomes (mice fed a high carbohydrate diet)
T1 sequence (P13516 1-355): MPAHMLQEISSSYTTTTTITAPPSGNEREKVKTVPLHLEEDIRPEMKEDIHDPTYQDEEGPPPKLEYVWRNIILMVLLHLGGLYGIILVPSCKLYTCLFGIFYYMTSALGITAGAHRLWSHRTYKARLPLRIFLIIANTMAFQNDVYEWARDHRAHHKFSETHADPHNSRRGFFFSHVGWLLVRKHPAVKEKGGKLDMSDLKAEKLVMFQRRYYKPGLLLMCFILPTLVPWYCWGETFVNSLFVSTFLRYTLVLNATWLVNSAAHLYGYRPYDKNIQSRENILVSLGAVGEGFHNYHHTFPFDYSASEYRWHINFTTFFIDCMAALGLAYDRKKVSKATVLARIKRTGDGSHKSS
Test: SCD assay: release of tritiated water from desaturation of 9,10-3H-stearoyl CoA, mouse liver microsomes
Type: biochemical
Excerpt: Stearoyl CoA desaturase activity was monitored by a modification of the acyl carrier protein assay described by B. R. Talamo and K. Bloch in Anal. Biochem. 1968, 29, 300-304. The SCD assay monitors the release of tritiated water from the desaturation of 9,10-^3H-stearoyl CoA.
Mouse liver microsomes, prepared from mice fed a high carbohydrate diet, were a source of the SCD and cyt b5 and cyt b5 reductase, necessary accessory proteins for the coupled reaction. Reaction mixtures for compound titrations contained 50 mM Tris HCl pH 7.5, 100 mM NaCl, 0.165 mg/ml BSA, 2.4% DMSO, 1 mM NADH, 0.03% T-20, and 300 nM (9,10) ^3H-stearoyl CoA (Perkin-Elmer). Reactions were initiated upon the addition of 4 ug/ml SCD microsomes. Incubations were terminated after 25 minutes at room temperature with cold 6% TCA. After standing 10 minutes at 4 deg C., samples were centrifuged 15 minutes at 4000 rpm to pellet precipitated protein. Supernatants were added to microtiter plates containing suspensions of activated charcoal (Darco G-60, Fisher Scientific) and mixed by inversion. Plates were then centrifuged to separate ^3H—H2O product from charcoal-bound reactants. Supernatants were quantitated in a Perkin Elmer Topcount 384 after solubilization in ScintiSafe Plus 50% (Fisher Scientific).
Inhibition (%) of SCD activity by compounds was calculated according to the following formula: % Inhibition=100*[1−(CPMsample−CPMblank)/(CPMtotal−CPMblank)]

Structure (SMILES) | IC50 [nM]
Cc1cccc(CN2CCN(c3cc(=O)[nH]cn3)CC2)c1 [Example 1, 6-[4-(3-Methyl-benzyl)-piperazin-1-yl]-3H-pyrimidin-4-one] | ≤ 1000
Cc1ccccc1CN1CCN(c2cc(=O)[nH]cn2)CC1 [Example 2, 6-[4-(2-Methyl-benzyl)-piperazin-1-yl]-3H-pyrimidin-4-one] | ≤ 1000
Cc1cccc(C)c1CN1CCN(c2cc(=O)[nH]cn2)CC1 [Example 3, 6-[4-(2,6-Dimethyl-benzyl)-piperazin-1-yl]-3H-pyrimidin-4-one] | ≤ 1000
Cc1ccc(CN2CCN(c3cc(=O)[nH]cn3)CC2)c(C)c1 [Example 4, 6-[4-(2,4-Dimethyl-benzyl)-piperazin-1-yl]-3H-pyrimidin-4-one] | ≥ 1100
COc1ccc(CN2CCN(c3cc(=O)[nH]cn3)CC2)c(C)c1C [Example 5, 6-[4-(4-Methoxy-2,3-dimethyl-benzyl)-piperazin-1-yl]-3H-pyrimidin-4-one] | ≥ 1100
COc1ccc(Br)cc1CN1CCN(c2cc(=O)[nH]cn2)CC1 [Example 6, 6-[4-(5-Bromo-2-methoxy-benzyl)-piperazin-1-yl]-3H-pyrimidin-4-one] | ≥ 1100
COc1cc(Br)cc(CN2CCN(c3cc(=O)[nH]cn3)CC2)c1O [Example 7, 6-[4-(5-Bromo-2-hydroxy-3-methoxy-benzyl)-piperazin-1-yl]-3H -pyrimidin-4-one] | ≤ 1000
O=c1cc(N2CCN(Cc3ccccc3C(F)(F)F)CC2)nc[nH]1 [Example 8, 6-[4-(2-Trifluoromethyl-benzyl)-piperazin-1-yl]-3H -pyrimidin-4-one] | ≤ 1000
O=c1cc(N2CCN(Cc3cc(C(F)(F)F)ccc3C(F)(F)F)CC2)nc[nH]1 [Example 9, 6-[4-(2,5-Bis-trifluoromethyl-benzyl)-piperazin-1-yl]-3H -pyrimidin-4-one] | ≤ 1000
N#Cc1cccc(CN2CCN(c3cc(=O)[nH]cn3)CC2)c1 [Example 10, 3-[4-(6-Oxo-1,6-dihydro-pyrimidin-4-yl)-piperazin-1-ylmethyl]-benzonitrile] | ≥ 1100
N#Cc1cc(CN2CCN(c3cc(=O)[nH]cn3)CC2)ccc1F [Example 11, 2-Fluoro-5-[4-(6-oxo-1,6-dihydro-pyrimidin-4-yl) -piperazin-1-ylmethyl]-benzo-nitrile] | ≤ 1000
O=c1cc(N2CCN(Cc3cccc(Cl)c3)CC2)nc[nH]1 [Example 12, 6-[4-(3-Chloro-benzyl)-piperazin-1-yl]-3H-pyrimidin-4-one] | ≤ 1000
O=c1cc(N2CCN(Cc3cccc(Br)c3)CC2)nc[nH]1 [Example 13, 6-[4-(3-Bromo-benzyl)-piperazin-1-yl]-3H-pyrimidin-4-one] | ≤ 1000
O=c1cc(N2CCN(Cc3c(Cl)cccc3Cl)CC2)nc[nH]1 [Example 14, 6-[4-(2,6-Dichloro-benzyl)-piperazin-1-yl]-3H-pyrimidin-4-one] | ≥ 1100
O=c1cc(N2CCN(Cc3ccc(Cl)c(Cl)c3)CC2)nc[nH]1 [Example 15, 6-[4-(3,4-Dichloro-benzyl)-piperazin-1-yl]-3H-pyrimidin-4-one] | ≤ 1000
O=c1cc(N2CCN(Cc3c(Cl)ccc(Cl)c3Cl)CC2)nc[nH]1 [Example 16, 6-[4-(2,3,6-Trichloro-benzyl)-piperazin-1-yl]-3H-pyrimidin-4-one] | ≤ 1000
O=c1cc(N2CCN(Cc3cccc(Cl)c3Cl)CC2)nc[nH]1 [Example 17, 6-[4-(2,3-Dichloro-benzyl)-piperazin-1-yl]-3H-pyrimidin-4-one] | ≤ 1000
O=c1cc(N2CCN(Cc3ccccc3Br)CC2)nc[nH]1 [Example 18, 6-[4-(2-Bromo-benzyl)-piperazin-1-yl]-3H-pyrimidin-4-one] | ≤ 1000
O=c1cc(N2CCN(Cc3cc(Br)ccc3F)CC2)nc[nH]1 [Example 19, 6-[4-(5-Bromo-2-fluoro-benzyl)-piperazin-1-yl]-3H -pyrimidin-4-one] | ≥ 1100
O=c1cc(N2CCN(Cc3cc(F)ccc3Br)CC2)nc[nH]1 [Example 20, 6-[4-(2-Bromo-5-fluoro-benzyl)-piperazin-1-yl]-3H -pyrimidin-4-one] | ≤ 1000
O=c1cc(N2CCN(Cc3ccc(F)c(F)c3)CC2)nc[nH]1 [Example 21, 6-[4-(3,4-Difluoro-benzyl)-piperazin-1-yl]-3H-pyrimidin-4-one] | ≤ 1000

Structure (SMILES) | IC50 [nM]
O=c1cc(N2CCN(Cc3ccc(F)c(Cl)c3)CC2)nc[nH]1 [Example 22, 6-[4-(3-Chloro-4-fluoro-benzyl)-piperazin-1-yl]-3H -pyrimidin-4-one] | ≤ 1000
O=c1cc(N2CCN(Cc3cc(C(F)(F)F)ccc3Cl)CC2)nc[nH]1 [Example 23, 6-[4-(2-Chloro-5-trifluoromethyl-benzyl)-piperazin-1-yl]-3H-pyrimidin-4-one] | ≥ 1100
O=c1cc(N2CCN(Cc3cc(Cl)cc(Cl)c3O)CC2)nc[nH]1 [Example 24, 6-[4-(3,5-Dichloro-2-hydroxy-benzyl)-piperazin-1-yl]-3H-pyrimidin-4-one] | ≤ 1000
O=c1cc(N2CCN(Cc3cc(Br)ccc3O)CC2)nc[nH]1 [Example 25, 6-[4-(5-Bromo-2-hydroxy-benzyl)-piperazin-1-yl]-3H -pyrimidin-4-one] | ≤ 1000
O=c1cc(N2CCN(Cc3cccc([N+](=O)[O-])c3)CC2)nc[nH]1 [Example 26, 6-[4-(3-Nitro-benzyl)-piperazin-1-yl]-3H-pyrimidin-4-one] | ≥ 1100
O=c1cc(N2CCN(Cc3ccccc3[N+](=O)[O-])CC2)nc[nH]1 [Example 27, 6-[4-(2-Nitro-benzyl)-piperazin-1-yl]-3H-pyrimidin-4-one] | ≤ 1000
O=c1cc(N2CCN(Cc3cc(Cl)ccc3[N+](=O)[O-])CC2)nc[nH]1 [Example 28, 6-[4-(5-Chloro-2-nitro-benzyl)-piperazin-1-yl]-3H -pyrimidin-4-one] | ≤ 1000
O=c1cc(N2CCN(Cc3cc([N+](=O)[O-])ccc3O)CC2)nc[nH]1 [Example 29, 6-[4-(2-Hydroxy-5-nitro-benzyl)-piperazin-1-yl]-3H -pyrimidin-4-one] | ≤ 1000
O=c1cc(N2CCN(Cc3ccccc3O)CC2)nc[nH]1 [Example 30, 6-[4-(2-Hydroxy-benzyl)-piperazin-1-yl]-3H-pyrimidin-4-one] | ≥ 1100
O=c1cc(N2CCN(Cc3cc(OC(F)(F)F)ccc3O)CC2)nc[nH]1 [Example 31, 6-[4-(2-Hydroxy-5-trifluoromethoxy-benzyl)-piperazin-1-yl]-3H -pyrimidin-4-one] | ≤ 1000
Cc1c(Br)cccc1CN1CCN(c2cc(=O)[nH]cn2)CC1 [Example 35, 6-[4-(3-Bromo-2-methyl-benzyl)-piperazin-1-yl]-3H -pyrimidin-4-one] | ≤ 1000
O=c1cc(N2CCN(Cc3ccccc3-c3ccccc3)CC2)nc[nH]1 [Example 36, 6-(4-Biphenyl-2-ylmethyl-piperazin-1-yl)-3H-pyrimidin-4-one] | ≥ 1100
O=c1cc(N2CCN(Cc3cccc4c3OCO4)CC2)nc[nH]1 [Example 37, 6-(4-Benzo[1,3]dioxol-4-ylmethyl-piperazin-1-yl)-3H -pyrimidin-4-one] | ≥ 1100
Cc1cccc(CN2CCN(c3cc(=O)[nH]cn3)CC2)c1O [Example 38, 6-[4-(2-Hydroxy-3-methyl-benzyl)-piperazin-1-yl]-3H -pyrimidin-4-one] | ≤ 1000
Cc1ccc(O)c(CN2CCN(c3cc(=O)[nH]cn3)CC2)c1 [Example 39, 6-[4-(2-Hydroxy-5-methyl-benzyl)-piperazin-1-yl]-3H -pyrimidin-4-one] | ≤ 1000
C=CCc1cccc(CN2CCN(c3cc(=O)[nH]cn3)CC2)c1O [Example 40, 6-[4-(3-Allyl-2-hydroxy-benzyl)-piperazin-1-yl]-3H -pyrimidin-4-one] | ≤ 1000
CC(C)(C)c1cccc(CN2CCN(c3cc(=O)[nH]cn3)CC2)c1O [Example 41, 6-[4-(3-tert-Butyl-2-hydroxy-benzyl)-piperazin-1-yl]-3H-pyrimidin-4-one] | ≤ 1000
O=c1cc(N2CCN(Cc3cccc(F)c3O)CC2)nc[nH]1 [Example 42, 6-[4-(3-Fluoro-2-hydroxy-benzyl)-piperazin-1-yl]-3H -pyrimidin-4-one] | ≤ 1000
O=c1cc(N2CCN(Cc3cc(F)ccc3O)CC2)nc[nH]1 [Example 43, 6-[4-(5-Fluoro-2-hydroxy-benzyl)-piperazin-1-yl]-3H -pyrimidin-4-one] | ≤ 1000
O=c1cc(N2CCN(Cc3cc(F)cc(F)c3O)CC2)nc[nH]1 [Example 44, 6-[4-(3,5-Difluoro-2-hydroxy-benzyl)-piperazin-1-yl]-3H-pyrimidin-4-one] | ≤ 1000
